Test: xn = mol fraction of the nth substance listed
Conditions: 101 kPa, Liquid, Vibrating tube method

CCCCN(CCCC)CCCC [tributylamine] + Cc1ccccc1
mass density [kg/m3]
Conditions	293.15 K	298.15 K	303.15 K	313.15 K	323.15 K	333.15 K
x1 = 0.0818	851.2	846.71	842.2	833.14	824.01	814.79
x1 = 0.1626	838.57	834.2	829.81	821	812.13	803.18
x1 = 0.2401	828.4	824.14	819.86	811.26	802.6	793.86
x1 = 0.3243	819.07	814.89	810.71	802.29	793.83	785.3
x1 = 0.3987	811.93	807.83	803.72	795.46	787.15	778.78
x1 = 0.4789	805.28	801.25	797.2	789.08	780.92	772.69
x1 = 0.5592	799.41	795.44	791.46	783.47	775.43	767.34
x1 = 0.6414	794.14	790.22	786.3	778.42	770.5	762.52
x1 = 0.7238	789.42	785.56	781.69	773.92	766.11	758.24
x1 = 0.7985	785.62	781.8	777.97	770.28	762.56	754.78
x1 = 0.8802	781.79	778.01	774.23	766.64	759	751.31
x1 = 0.8991	780.96	777.2	773.42	765.85	758.23	750.57

CCCCN(CCCC)CCCC [tributylamine] + CCc1ccccc1
mass density [kg/m3]
Conditions	293.15 K	298.15 K	303.15 K	313.15 K	323.15 K	333.15 K
x1 = 0.0829	852.96	848.66	844.35	835.7	827	818.22
x1 = 0.1602	841.78	837.56	833.34	824.84	816.3	807.68
x1 = 0.2404	831.68	827.53	823.38	815.04	806.64	798.19
x1 = 0.3189	823	818.92	814.83	806.62	798.36	790.04
x1 = 0.3972	815.35	811.33	807.3	799.2	791.06	782.85
x1 = 0.4788	808.26	804.3	800.32	792.33	784.3	776.21
x1 = 0.572	801.08	797.17	793.25	785.37	777.45	769.48
x1 = 0.6382	796.47	792.6	788.71	780.91	773.07	765.18
x1 = 0.7192	791.35	787.52	783.67	775.96	768.2	760.39
x1 = 0.8022	786.64	782.83	779.02	771.38	763.69	755.96
x1 = 0.8765	782.75	778.98	775.21	767.62	760	752.32
x1 = 0.9556	778.92	775.18	771.44	763.92	756.36	748.76

From the NIST ThermoML archive (doi:10.1016/j.jct.2011.10.027)
